# Measurements published in ChEMBL document CHEMBL1146569, “The pterocellins, novel bioactive alkaloids from the marine bryozoan Pterocella vesiculosa” (J Nat Prod, 2003).
# How the values were obtained:
# Assay type in all cases: functional
# Candida albicans = assay: Antimicrobial activity against Candida albicans assessed per disk
# [1] = system: Trichophyton mentagrophytes; assay: Antimicrobial activity against Trichophyton mentagrophytes assessed per disk
# HL-60(TB) = assay: Growth inhibition of human HL-60(TB) cells; settings: for CC50: read-out: LC50 (the source's name)
# K562 = assay: Growth inhibition of human K562 cells
# NCI-H23 = assay: Growth inhibition of human NCI-H23 cells
# HCT-116 = assay: Growth inhibition of human HCT116 cells
# SW-620 = assay: Growth inhibition of human SW620 cells
# SNB-19 = assay: Growth inhibition of human SNB19 cells; settings: for CC50: read-out: LC50 (the source's name)
# SNB-75 = assay: Growth inhibition of human SNB75 cells; settings: for CC50: read-out: LC50 (the source's name)
# U-251 = assay: Growth inhibition of human U251 cells; settings: for CC50: read-out: LC50 (the source's name)
# Malme-3M = assay: Growth inhibition of human MALME-3M cells; settings: for CC50: read-out: LC50 (the source's name)
# M14 = assay: Growth inhibition of human M14 cells
# SK-MEL-2 = assay: Growth inhibition of human SK-MEL-2 cells; settings: for CC50: read-out: LC50 (the source's name)
# SK-MEL-5 = assay: Growth inhibition of human SK-MEL-5 cells; settings: for CC50: read-out: LC50 (the source's name)
# UACC-257 = assay: Growth inhibition of human UACC257 cells; settings: for CC50: read-out: LC50 (the source's name)
# UACC-62 = assay: Growth inhibition of human UACC62 cells
# OVCAR-4 = assay: Growth inhibition of human OVCAR4 cells
# 786-0 = assay: Growth inhibition of human 786-0 cells
# UO-31 = assay: Growth inhibition of human UO31 cells; settings: for CC50: read-out: LC50 (the source's name)
# MDA-MB-231 = assay: Growth inhibition of human MDA-MB-231 cells; settings: for CC50: read-out: LC50 (the source's name)
# [2] = Growth inhibition of human Hs 578T cells; settings: for CC50: read-out: LC50 (the source's name)
# MDA-N = assay: Growth inhibition of human MDA-N cells; settings: for CC50: read-out: LC50 (the source's name)
smiles,measurement,setting,value
COc1cn2c(cc1=O)C(=O)c1ccnc(Cc3ccccc3)c1-2 [PTEROCELLIN B],MIC,Candida albicans,>60 µg
same,MIC,[1],3.9 µg
same,GI50,HL-60(TB),1000 nM
same,TGI,HL-60(TB),5100 nM
same,CC50,HL-60(TB),43500 nM
same,GI50,K562,1200 nM
same,LC50 (concentration killing 50% of cells),K562,4900 nM
same,TGI,K562,2400 nM
same,GI50,NCI-H23,100 nM
same,LC50 (concentration causing 50% net cell kill),NCI-H23,700 nM
same,TGI,NCI-H23,300 nM
same,GI50,HCT-116,500 nM
same,LC50,HCT-116,4000 nM
same,TGI,HCT-116,1600 nM
same,GI50,SW-620,700 nM
same,LC50 (concentration killing 50% of cells),SW-620,4900 nM
same,TGI,SW-620,2000 nM
same,GI50,SNB-19,1600 nM
same,TGI,SNB-19,3300 nM
same,CC50,SNB-19,7000 nM
same,GI50,SNB-75,200 nM
same,TGI,SNB-75,900 nM
same,CC50,SNB-75,5300 nM
same,GI50,U-251,1000 nM
same,TGI,U-251,2200 nM
same,CC50,U-251,4700 nM
same,GI50,Malme-3M,30 nM
same,TGI,Malme-3M,100 nM
same,CC50,Malme-3M,300 nM
same,GI50,M14,100 nM
same,LC50 (concentration killing 50% of cells),M14,500 nM
same,TGI,M14,200 nM
same,GI50,SK-MEL-2,700 nM
same,TGI,SK-MEL-2,2200 nM
same,CC50,SK-MEL-2,5300 nM
same,GI50,SK-MEL-5,100 nM
same,TGI,SK-MEL-5,300 nM
same,CC50,SK-MEL-5,500 nM
same,GI50,UACC-257,200 nM
same,TGI,UACC-257,700 nM
same,CC50,UACC-257,2900 nM
same,GI50,UACC-62,200 nM
same,LC50 (50% cell kill),UACC-62,4100 nM
same,TGI,UACC-62,600 nM
same,GI50,OVCAR-4,1300 nM
same,LC50,OVCAR-4,5600 nM
same,TGI,OVCAR-4,2700 nM
same,GI50,786-0,1800 nM
same,LC50 (concentration killing 50% of cells),786-0,17900 nM
same,TGI,786-0,5000 nM
same,GI50,UO-31,1300 nM
same,TGI,UO-31,2800 nM
same,CC50,UO-31,5700 nM
same,GI50,MDA-MB-231,3300 nM
same,TGI,MDA-MB-231,29600 nM
same,CC50,MDA-MB-231,> 100000 nM
same,GI50,[2],5100 nM
same,TGI,[2],> 100000 nM
same,CC50,[2],> 100000 nM
same,GI50,MDA-N,200 nM
same,TGI,MDA-N,300 nM
same,CC50,MDA-N,600 nM
COc1cn2c(cc1=O)C(=O)c1ccnc(CC(C)C)c1-2 [PTEROCELLIN A],MIC,Candida albicans,>60 µg
same,MIC,[1],3.9 µg
same,GI50,HL-60(TB),3000 nM
same,TGI,HL-60(TB),> 100000 nM
same,CC50,HL-60(TB),> 100000 nM
same,GI50,K562,3000 nM
same,LC50 (concentration killing 50% of cells),K562,> 100000 nM
same,TGI,K562,> 100000 nM
same,GI50,NCI-H23,300 nM
same,LC50 (concentration causing 50% net cell kill),NCI-H23,6100 nM
same,TGI,NCI-H23,1000 nM
same,GI50,HCT-116,1100 nM
same,LC50,HCT-116,11200 nM
same,TGI,HCT-116,2500 nM
same,GI50,SW-620,1500 nM
same,LC50 (concentration killing 50% of cells),SW-620,6200 nM
same,TGI,SW-620,3100 nM
same,GI50,SNB-19,2900 nM
same,TGI,SNB-19,11400 nM
same,CC50,SNB-19,60000 nM
same,GI50,SNB-75,1400 nM
same,TGI,SNB-75,3900 nM
same,CC50,SNB-75,56800 nM
same,GI50,U-251,2200 nM
same,TGI,U-251,7500 nM
same,CC50,U-251,42500 nM
same,GI50,Malme-3M,100 nM
same,TGI,Malme-3M,300 nM
same,CC50,Malme-3M,800 nM
same,GI50,M14,200 nM
same,LC50 (concentration killing 50% of cells),M14,4600 nM
same,TGI,M14,800 nM
same,GI50,SK-MEL-2,1900 nM
same,TGI,SK-MEL-2,3400 nM
same,CC50,SK-MEL-2,6300 nM
same,GI50,SK-MEL-5,200 nM
same,TGI,SK-MEL-5,300 nM
same,CC50,SK-MEL-5,600 nM
same,GI50,UACC-257,1100 nM
same,TGI,UACC-257,3000 nM
same,CC50,UACC-257,7900 nM
same,GI50,UACC-62,1400 nM
same,LC50 (50% cell kill),UACC-62,6000 nM
same,TGI,UACC-62,2900 nM
same,GI50,OVCAR-4,1700 nM
same,LC50,OVCAR-4,7600 nM
same,TGI,OVCAR-4,3600 nM
same,GI50,786-0,1300 nM
same,LC50 (concentration killing 50% of cells),786-0,24400 nM
same,TGI,786-0,4700 nM
same,GI50,UO-31,2200 nM
same,TGI,UO-31,6100 nM
same,CC50,UO-31,22200 nM
same,GI50,MDA-MB-231,2600 nM
same,TGI,MDA-MB-231,14100 nM
same,CC50,MDA-MB-231,51700 nM
same,GI50,[2],6300 nM
same,TGI,[2],> 100000 nM
same,CC50,[2],> 100000 nM
same,GI50,MDA-N,200 nM
same,TGI,MDA-N,400 nM
same,CC50,MDA-N,600 nM
